Measured values: US10548864B2, “Enhanced ATRA-related compounds for the treatment of proliferative diseases, autoimmune diseases, and addiction conditions” (Beth Israel Deaconess Medical Center, Inc., priority 2015, dated 2020)

Columns and labels:
GST-Pin1 [1] = biological target: T1, GST-Pin1 (Homo sapiens, UniProt Q13526); experiment: Fluorescence polarization pTide competition assay (FP-HTS / FP assay)
Excerpt: Measurements of fluorescence polarization and fluorescence absorbance were made in black 384-well plates (Corning) using a Synergy II plate reader. […] The assay can tolerate up to 10% DMSO.
Molecules that compete with pTide for binding to the active site, e.g., Pin1 substrates, were detected under equilibrium conditions. A Z score was used to identify and rank those molecules that were most competitive with pTide (e.g., that have higher binding affinity). A Z score is defined as Z=(x−μ)/σ, where x is a raw score, μ is the mean of the population, and σ is the standard deviation of the population. Molecules with the most negative Z scores represent those with the highest Pin1 binding affinity. The Z′ value for this assay was around 0.70 and was consistent for day-to-day performance, with a coefficient of variation in the range of 4-5%.

RAR = experiment: Transactivation of RAR downstream target genes
MDA-MB-468 cells = experiment: MDA-MB-468 xenograft in nude mice
Experimental: Tumor sizes were measured weekly and mice were sacrificed after 7 weeks to collect tumor tissues (37D). […] Pin1 and cyclin D1 in xenograft tumors were assayed by IB (37F).
(§3) In pilot experiments, MDA-MB-231 cells were subcutaneously injected into female nude mice in the flank.

NIH 3T3 cells = experiment: Centrosome amplification induced by Pin1 overexpression; conditions: 72 hours
[2] = system: human normal and breast cancer cell lines; experiment: Cell growth of human normal and breast cancer cell lines; assay type: cell-based
Experimental: Absorbance was determined at 570 nm.
To test this possibility, we chose breast cancer as a model due to the substantial oncogenic role of Pin1 in vitro and in vivo.

human APL NB4 cells [3] = experiment: NB4 cell growth
Experimental: (§4) For cell growth assays described below, cells were seeded in a density of 3000 cells per well in 96-well flat-bottomed plates, and incubated for 24 h in 10% FBS-supplemented DMEM culture medium. […] Control cells received DMSO at a concentration equal to that in drug-treated cells. After 72 hours, the number of cells was counted after trypsin digestion, or medium containing 0.5 mg/ml 3-(4,5-dimethylthiazol-2-yl)-2,5-diphenyl-2H-tetrazolium bromide was added to each well for 2 hours of incubation at 37° C., followed by removal of the media before the addition of 200 μl DMSO. Absorbance was determined at 570 nm.

GST-cyclophilin = experiment: Chymotrypsin coupled PPIase activity assay; assay type: biochemical
Experimental: Compounds were preincubated with enzymes for 0.5 to 2 hours at 4° C. Ki values obtained from PPIase assays are derived from the Cheng-Prusoff equation: [formula] where Km is the Michaelis constant for the used substrate, S is the initial concentration of the substrate in the assay, and the IC50 value is of the inhibitor. Cell Growth Assays

GST-Pin1 [4] = biological target: T1, GST-Pin1; experiment: Chymotrypsin coupled PPIase activity assay; assay type: biochemical
Experimental: (§1) Compounds were preincubated with enzymes for 0.5 to 2 hours at 4° C. Ki values obtained from PPIase assays are derived from the Cheng-Prusoff equation:
(§2) [formula] where Km is the Michaelis constant for the used substrate, S is the initial concentration of the substrate in the assay, and the IC50 value is of the inhibitor. Cell Growth Assays

GST-FKBP12 = GST-FKBP12 (Homo sapiens, UniProt P62942); experiment: Chymotrypsin coupled PPIase activity assay; assay type: biochemical
Experimental: as §1, §2

MDA-MB-231 cells = experiment: MDA-MB-231 xenograft in nude mice
Experimental: Tumor sizes were measured weekly and mice were sacrificed after 7 weeks to collect tumor tissues (37A). […] Pin1 and cyclin D1 in xenograft tumors were assayed by IB (37C).
Tumor sizes were measured weekly and mice were sacrificed after 7 weeks to collect tumor tissues (37G).
Tumor sizes were recorded weekly by a caliber for up to 8 weeks and tumor volumes were calculated using the formula L×W^2×0.52, where L and W represent length and width, respectively.
as §3

SKBR3 cells = experiment: Foci formation assay upon Pin1 overexpression
Pin1 [5] = experiment: Immunoblot of Pin1 and its substrate oncogenes and tumor suppressors in breast cells
Experimental: For immunoprecipitation and immunoblotting in the examples below, cells were polyethylenimine (PEI)- or lipofemamine-transfected with 8 μg of various plasmids, incubated in 10 cm dishes for 24 hours, and subsequently treatment with drugs as needed. […] After centrifugation at 13,000 g for 10 minutes, one tenth of the supernatant was stored as input, and the remainder was incubated 12 hours with M2 Flag agarose (Sigma). After brief centrifugation, immunoprecipitates were collected, extensively washed with the aforementioned lysis buffer twice, suspended in 2×SDS sample buffer (100 mM Tris-HCl, pH 6.8, 4% SDS, 5% β-mercaptoethanol, 20% glycerol, and 0.1% bromphenol blue), boiled for 10 minutes, and subjected to immunoblotting analysis. […] After electrophoresis, gel was transferred to nitrocellulose membranes using a semidry transfer cell. The transblotted membrane was washed twice with Tris-buffered saline containing 0.1% Tween 20 (TBST). After blocking with TBST containing 5% bovine serum albumin (BSA) for 1 hour, the membrane was incubated with the appropriate primary antibody (diluted 1:1000) in 2% BSA-containing TBST at 4° C. overnight. After incubation with the primary antibody, the membrane was washed three times with TBST for a total of 30 minutes followed by incubation with horseradish peroxidase (HRP)-conjugated goat anti-rabbit or anti-mouse IgG (diluted 1:2500) for 1 hour at room temperature. After three extensive washes with TBST for a total of 30 minutes, the immunoblots were visualized by enhanced chemiluminescence.

[6] = in humans; cited from earlier work
Pin1 [7] = biological target: T2, Pin1 (Mus musculus, UniProt Q9QUR7); experiment: Pin1 level, mRNA and stability in MEFs (immunoblot, RT-PCR, CHX chase); assay type: cell-based
T2 construct: endogenous in cells; host or cells: mouse embryonic fibroblasts (MEFs)
Experimental: RNA from cells was extracted with the Total RNA isolation mini kit (Agilent). cDNA was prepared with transcriptor first strand cDNA synthesis kit (Roche) and PCR was carried out with iQ SYBR Green Supermix (Bio-Rad). Samples were run on the QIAGEN Rotor-Gene Q real-time cycler. GAPDH was used as an internal control. Analysis was performed with the delta-delta ct method. The following primers were used: […]

cyclin D1 promoter = experiment: Cyclin D1 promoter luciferase activity upon Pin1 overexpression; conditions: 72 hours
[8] = system: APL cells from hCG-PML-RARα transgenic mice; conditions: APL mouse model
human APL NB4 cells [9] = experiment: Immunoblot of Pin1 and PML-RARα in APL NB4 cells; assay type: cell-based; conditions: for PML-RARα level: APL cells; for PML-RARα level / Pin1 degradation: 72 hours
MRL/lpr lupus prone mice = experiment: MRL/lpr lupus prone mice
Pin1 and PML-RARα = Pin1 and PML-RARα immunostaining in bone marrow of APL patients treated with ATRA
Experimental: Tissue samples were washed with PBS and fixed with 4% paraformaldehyde at room temperature for 20 minutes, followed by permeabilization and blocking with PBS containing 0.1% Triton X-100 and 5% FBS for 1 hour. After another wash with PBS, immunostaining was performed by incubating the cells with mouse anti-Pin1 (1:1000), or rabbit anti-PML (Santa Cruz; 1:100) primary antibodies at 4° C. overnight. Primary antibodies were diluted in PBS containing 0.1% Triton X-100, 0.2% BSA, 0.5 mM PMSF, and 1 mM dithiothreitol. […] Samples were nuclear counterstained with 4,6-diamidino-2-phenylindole (DAPI), mounted and visualized with a LSM510 confocal imaging system.
Bone marrow aspirates were obtained with informed consent from the iliac crest of patients in whom the diagnosis of acute promyelocytic leukemia was suspected based on the morphological evaluation of peripheral blood smear. […] Samples tested positive for the PML/RARα rearrangement by RT-PCR.

[10] = system: mouse embryonic fibroblasts (MEFs); experiment: Cell growth assay in Pin1 WT and Pin1 KO MEFs
Experimental: as §4

NB4 cells = experiment: APL cell differentiation (Giemsa staining, FACS with CD14 and CD11b); assay type: cell-based, human; conditions: 72 hours
Excerpt: The latter result could be attributed to the stabilization of RAR protein upon Pin1 KD.

[11] = 5 or 10 mg 21 day ATRA-releasing pellets, 1 week after inoculation
[12] = three sensitive cancer cell lines, 72 hours
[13] = after 10 days of ATRA treatment

T1 sequence (Q13526 whole entry): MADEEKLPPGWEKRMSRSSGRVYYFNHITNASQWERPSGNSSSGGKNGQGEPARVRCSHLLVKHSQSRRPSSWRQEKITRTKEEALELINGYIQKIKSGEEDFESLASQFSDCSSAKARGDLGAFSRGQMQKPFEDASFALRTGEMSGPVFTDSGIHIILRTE
T2 sequence (Q9QUR7 whole entry): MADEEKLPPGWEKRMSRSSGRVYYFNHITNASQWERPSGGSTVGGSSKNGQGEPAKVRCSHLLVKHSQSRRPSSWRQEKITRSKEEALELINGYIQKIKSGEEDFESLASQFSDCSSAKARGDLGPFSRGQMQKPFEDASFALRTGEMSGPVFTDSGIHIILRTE
GST-FKBP12, sequence (P62942 whole entry): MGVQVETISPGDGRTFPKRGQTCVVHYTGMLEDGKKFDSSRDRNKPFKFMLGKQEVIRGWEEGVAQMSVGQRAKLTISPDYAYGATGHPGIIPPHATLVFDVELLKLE

CCCCCCCOc1cc2c(cc1/C(C)=C/c1ccc(C(=O)O)cc1)C(C)(C)CCS2(=O)=O [Ro-415253]
Pin1 binding in the FP assay (GST-Pin1 [1]): minimal Pin1 binding | Transactivation of RAR downstream target genes (RARβ, TGM2) (RAR): suppresses it

CC1=C(/C=C/C(C)=C/C=C/C(C)=C/C(=O)O)C(C)(C)CCC1 [ATRA, all-trans retinoic acid]
Tumor growth (MDA-MB-468 cells; [11]): potently and dose-dependently inhibited tumor growth | Pin1 and cyclin D1 in tumors (MDA-MB-468 cells; ATRA-releasing pellets): reduced both Pin1 and its substrate cyclin D1 | Centrosome amplification induced by Pin1 overexpression (NIH 3T3 cells): dose-dependently and fully inhibited | Cell growth, malignant breast cancer cells ([2]; 72 hours): differential susceptibility | Cell growth, non-transformed MCF10A and HMLE cells ([2]; 72 hours): highly resistant | NB4 cell proliferation (human APL NB4 cells [3]): suppressed | Inhibition of cyclophilin (GST-cyclophilin): did not inhibit | Inhibition of the PPIase activity of Pin1 (GST-Pin1 [4]): fully inhibited | Inhibition of FKBP12 (GST-FKBP12): did not inhibit | Tumor growth (MDA-MB-231 cells; [11]): potently and dose-dependently inhibited tumor growth | Endogenous and exogenous Pin1 and cyclin D1 in tumors of Pin1-expressing MDA-MB-231 cells (MDA-MB-231 cells; ATRA implants): dose-dependently reduced both endogenous and exogenous Pin1, and cyclin D1 | Tumor growth, MDA-MB-231 cells stably expressing Pin1 (MDA-MB-231 cells; ATRA implants): effectively inhibited by ATRA in a dose-dependent manner | Pin1 and cyclin D1 in tumors (MDA-MB-231 cells; ATRA-releasing pellets): reduced both Pin1 and its substrate cyclin D1 | Antitumor activity (MDA-MB-231 cells; intraperitoneally 3 times a week for 8 weeks (12.5 mg/kg)): only modest antitumor activity | Foci formation enhanced by Pin1 overexpression (SKBR3 cells): dose-dependently and fully inhibited | Effects on Pin1 and substrate proteins in normal MCF10A cells (Pin1 [5]; MCF10A cells): no appreciable effects | Protein levels of Pin1 and its substrate oncogenes (cyclin D1, HER2, ERa, Akt, NFκB/p65, c-Jun, PKM2) (Pin1 [5]; [12]): dose-dependent protein reduction | Protein levels of Pin1 substrate tumor suppressors (Smad2/3, SMRT) (Pin1 [5]; [12]): protein induction | Half-life [6]: ~45 min | Pin1 protein level (Pin1 [7]; MEFs, immunoblot): dose-dependently down-regulated Pin1 | Pin1 mRNA levels (Pin1 [7]; MEFs, quantitative RT-PCR): no obvious effects | Degradation of PML-RARα and Pin1 (Pin1 [7]; RARα, β, and γ triple KO MEFs): induced degradation of PML-RARα and Pin1 similar to that for WT controls | Activation of the cyclin D1 promoter by Pin1 overexpression (cyclin D1 promoter): dose-dependently and fully inhibited | Transactivation of RAR downstream target genes (RARβ, TGM2) (RAR): effectively and significantly induces transactivation | PML-RARα in the bone marrow [8]: effectively reduced PML-RARα in the bone marrow | Pin1 levels in the bone marrow [8]: reduced Pin1 levels in the bone marrow | Spleen weight [8]: spleen weights nearly at basal levels | PML-RARα level (human APL NB4 cells [9]): dose-dependently reduced PML-RARα | Pin1 and PML-RARα expression (human APL NB4 cells [9]; NB4 cells, 10 μM for 96 hours): reduced Pin1 and PML-RARα expression | Visual lupus-related phenotypes (fur loss, skin inflammation, lymphoid hyperplasia) (MRL/lpr lupus prone mice; 5 mg ATRA for 8 weeks from 8 weeks of age): drastically suppressed visual lupus-related phenotypes in all six treated mice | Size of spleen and lymph node (MRL/lpr lupus prone mice; 14 week-old ATRA-treated mouse): normal size | Glomerular deposition of IgG, C3, and CD68 (MRL/lpr lupus prone mice; mouse, in vivo): potently inhibited | Hyperkeratinosis (MRL/lpr lupus prone mice; mouse, in vivo): potently inhibited | PML-RARα level in bone marrow of APL patients (Pin1 and PML-RARα; after 3 days of ATRA treatment): ~40% | Pin1 level in bone marrow of APL patients (Pin1 and PML-RARα; after 3 days of ATRA treatment): ~40% | PML-RARα level in bone marrow of APL patients (Pin1 and PML-RARα; [13]): < 10% | Pin1 level in bone marrow of APL patients (Pin1 and PML-RARα; [13]): < 10% | Inhibition of growth of Pin1 WT MEFs ([10]; Pin1 WT MEFs): relatively high concentrations of ATRA were required | Inhibition of growth of Pin1 KO MEFs ([10]; Pin1 knockout (KO) cells): much more resistant

CC(=O)OC/C=C(C)/C=C/C=C(C)/C=C/C1=C(C)CCCC1(C)C [retinyl acetate]
Pin1 binding in the FP assay (GST-Pin1 [1]): totally inactive

O=C(O)Cc1c[nH]c2ccccc12 [indo-3-acetic acid]
Pin1 binding in the FP assay (GST-Pin1 [1]): neither pravastatin nor indo-3-acetic acid demonstrated any binding

CC1(C)CCC(C)(C)c2cc(NC(=O)c3ccc(C(=O)O)cc3)ccc21 [tamibarotene]
Pin1 binding in the FP assay (GST-Pin1 [1]): moderate binding

C=C(c1ccc(C(=O)O)cc1)c1cc2c(cc1C)C(C)(C)CCC2(C)C [bexarotene]
Pin1 binding in the FP assay (GST-Pin1 [1]): marginal binding

CC1=C(/C=C/C(C)=C/C=C/C(C)=C/C=O)C(C)(C)CCC1 [retinal]
Pin1 binding in the FP assay (GST-Pin1 [1]): totally inactive

CC1=C(/C=C/C(C)=C/C=C/C(C)=C/CO)C(C)(C)CCC1 [retinol]
Pin1 binding in the FP assay (GST-Pin1 [1]): totally inactive

Clc1cccc(C(c2ccc3[nH]cnc3c2)n2ccnc2)c1 (centres unmarked) [liarazole]
Inhibition of cell proliferation in combination with ATRA ([2]; AU565 or SKBR3 cells, cytochrome P450 inhibitor plus ATRA): generally additive effects

CC1=C(/C=C/C(C)=C/C=C/C(C)=C\C(=O)O)C(C)(C)CCC1 [Compound 13cRA, 13-cis-retinoic acid]
Inhibition of cyclophilin (GST-cyclophilin): did not inhibit | Inhibition of the PPIase activity of Pin1 (GST-Pin1 [4]): fully inhibited | Inhibition of FKBP12 (GST-FKBP12): did not inhibit | Z score in FP-HTS (GST-Pin1 [1]; ~8200 compounds screened): lowest Z score

CCOC(=O)CN1C(=O)c2ccc3c4c(ccc(c24)C1=O)C(=O)N(CC(=O)OCC)C3=O [PiB]
PML-RARα level (human APL NB4 cells [9]): dose-dependently reduced PML-RARα | Pin1 degradation (human APL NB4 cells [9]; NB4 cells): inhibited Pin1 without degrading it | APL cell differentiation (NB4 cells): neither Pin1 inhibitors nor Pin1 KD induced APL cell differentiation

O=C(O[C@@H]1Cc2c(O)cc(O)cc2O[C@@H]1c1cc(O)c(O)c(O)c1)c1cc(O)c(O)c(O)c1 [EGCG]
Condition of treated mice (toxic effects) [8]: rather sick | PML-RARα in the bone marrow [8]: effectively reduced PML-RARα in the bone marrow | Spleen weight [8]: spleen weights nearly at basal levels | PML-RARα level (human APL NB4 cells [9]): dose-dependently reduced PML-RARα | Pin1 degradation (human APL NB4 cells [9]; NB4 cells): inhibited Pin1 without degrading it | APL cell differentiation (NB4 cells): neither Pin1 inhibitors nor Pin1 KD induced APL cell differentiation

COc1cc(C)c(/C=C/C(C)=C/C=C/C(C)=C/C(=O)O)c(C)c1C [acitretin]
Pin1 binding in the FP assay (GST-Pin1 [1]): moderate binding
